Patent US20220288057A1, “CONJOINT THERAPY FOR TREATING SEIZURE DISORDERS” (XENON PHARMACEUTICALS INC., priority 2021, published 2022)
Where two headings read alike, the source gives them in different places. Blank lines part the entries; values can stand above or below the molecule they belong to.

How the values were obtained:
[1] = Plasma and brain concentrations in 6 Hz studies (LC-MS/MS); format: in vivo, mouse; settings: intraperitoneal
Description: Sample Collection and Preparation: Mice were anesthetized by isoflurane inhalation (TECH-018) until they reached a surgical plane of anesthesia. Then a syringe (1 mL syringe with a 22 gauge needle) was inserted under the sternum into the heart (TECH-031). Approximately 0.5 mL of blood was collected, deposited into a K2EDTA tube, and stored on ice. Animals were then euthanized by cervical dislocation (TECH-018). Brains were removed, placed into a pre-weighed vial, and snap frozen on dry ice. At the end of the sample collection, blood was centrifuged at 4000 rpm for 10 minutes at 4° C., and the plasma pipetted into a labeled tube. All samples were stored in a −80° C. freezer until bioanalysis (8 days after sample collection for Studies 3A and 3B; 20 days after sample collection for Study 3C).
Plasma and Tissue Sample Analysis: Bead mill polypropylene tubes containing weighed brain tissues were thawed at room temperature and 3 mL of homogenization solvent (water:acetonitrile (1:1, v:v)) was added. The tubes were placed in the Bead Mill Homogenizer (Bead Ruptor Elite Model, Omni International) and shaken at a velocity of 3.70 m/s for a single cycle lasting 30 seconds. The homogenized tube was centrifuged at 4000 rpm for 20 minutes, the supernatant was transferred to a 1.5 mL Eppendorf tube, and stored frozen at −80° C. until analysis. All samples including plasma and brain homogenate extracts (including calibration and quality control (QC) samples prepared in K2EDTA rat plasma), were extracted by protein precipitation. […] The samples in the 1.5 mL tubes were vortex mixed and then centrifuged for 20 minutes at 13,000 rpm. Fifty microliters of the supernatant was mixed with 150 μL of water/acetonitrile (1:1) in a 96 well plate which was centrifuged post mixing for 20 minutes at 4000 rpm, and was then ready for analysis by liquid chromatography tandem mass spectrometry (LC-MS/MS).
Samples were analyzed by a research-grade LC-MS/MS method as follows: […]

[2] = tested on: 6 Hz psychomotor seizures in CF-1 mice; test: Mouse 6 Hz psychomotor seizure assay (34 milliampere, 3 s); format: in vivo; settings: for Fraction Seizing: Levetiracetam 300 mg/kg IP 1 h alone
Description: It was evaluated whether the combination of both compounds is favorable or unfavorable for efficacy by dosing Compound A and Levetiracetam alone and in combination, each at a dose that produces sub-maximal efficacy on its own. […] Plasma and brain samples were analyzed to gain an understanding of how the combination of Compound A and Levetiracetam may affect pharmacokinetics and pharmacodynamics. […] 6 Hz Psychomotor Seizure Assay: […] The animal was then securely restrained and a pair of electrodes was applied to the eyes (Electro Convulsive Therapy Unit 57800, Ugo Basile). […] Data Processing and Analysis: Statistical data analysis was performed using GraphPad Prism (version 8.2.1). Dose-response data was analyzed using a Kruskal-Wallis test, followed by Dunn's multiple comparisons. […] Dose- and concentration-response curves were generated using the Hill Langmuir equation: […]

MES assay = settings: Barton et al. 2001; cited from earlier work
[3] = tested on: tonic hindlimb seizure following corneal stimulation in CF-1 mice; test: Mouse maximal electroshock (MES) assay, 60 Hz 50 mA corneal stimulation; format: in vivo
Description: The interaction of Compound A with other ASMs was evaluated after oral dosing in the mouse maximal electroshock (MES) assay to determine whether some combinations were favorable or unfavorable. Efficacy was quantified by calculating the fraction of animals with a tonic hindlimb seizure following corneal stimulation. Compound Preparation: Compound A was initially solubilized in DMSO. This solution was then added into a 0.5% methyl cellulose solution to create a more even and less aggregated compound suspension. Serial dilutions were prepared from the tube with the highest concentration of Compound A and the compound suspensions were further vortexed prior to animal dosing. The final concentration of DMSO was 5%, an amount with no apparent toxicity or neuroprotection in the MES assay. […] Animals: Adult male CF-1 albino mice (25-35 g) purchased from Harlan-Envigo were used. The mice were housed four per cage and had access to filtered water and chow ad libidum, throughout the experiment. MES Assay: Compounds were administered orally by gavage before testing unless indicated otherwise. During MES testing, a 60-Hz alternating current (50 mA) was delivered for 0.2 seconds through corneal electrodes to the mice. A drop of 0.5% Alcaine solution was placed on the eye prior to current delivery. The electrodes were subsequently placed gently onto the eyes of the animal and the electrical shock was initiated by triggering through a foot-pedal activator. The animals were restrained by hand and gently released as the shock was delivered and the seizure commenced. Animals were monitored for hind limb tonic extension as the end point for this test. Statistical analysis: All statistics were calculated using Prism version 7 software (Graphpad Software). The method used for each experiment is indicated in the results section. Concentration-response curves were calculated as best fits to the equation […] where X was the log of plasma concentration. Unless indicated otherwise, bottom was constrained to be 0. Top was constrained to be the value determined experimentally by vehicle control measurements. Compound A Dose Response: […]

concentration at 1 h ([1]; CF-1, mouse, brain, 300 mg/kg, Study 3B, Levetiracetam 300 mg/kg IP 1 h alone, read-out: Brain): 861 ± 120 µM
concentration at 1 h ([1]; CF-1, mouse, brain, Study 3C, analyte Levetiracetam, 300 mg/kg IP + Compound A 4 mg/kg PO, read-out: Brain): 1100 ± 265 µM
concentration at 1 h ([1]; CF-1, mouse, plasma, 300 mg/kg, Study 3B, Levetiracetam 300 mg/kg IP 1 h alone, read-out: Plasma): 1500 ± 320 µM
concentration at 1 h ([1]; mouse, brain, 300 mg/kg, Studies 3B+3C combined, Levetiracetam 300 mg/kg IP 1 h alone, read-out: Brain): 996 µM
concentration at 1 h ([1]; mouse, brain, 300 mg/kg, Study 3B, Levetiracetam 300 mg/kg IP 1 h alone, read-out: Brain): 861 ± 120 µM
concentration at 1 h ([1]; mouse, brain, Studies 3B+3C combined, analyte Levetiracetam, 300 mg/kg IP + Compound A 4 mg/kg PO, read-out: Brain): 1050 µM
concentration at 1 h ([1]; mouse, brain, Study 3B, analyte Levetiracetam, 300 mg/kg IP + Compound A 4 mg/kg PO, read-out: Brain): 1010 µM
concentration at 1 h ([1]; mouse, brain, Study 3C, analyte Levetiracetam, 300 mg/kg IP + Compound A 4 mg/kg PO, read-out: Brain): 1100 µM
concentration at 1 h ([1]; mouse, plasma, 300 mg/kg, Studies 3B+3C combined, Levetiracetam 300 mg/kg IP 1 h alone, read-out: Plasma): 1640 µM
concentration at 1 h ([1]; mouse, plasma, 300 mg/kg, Study 3B, Levetiracetam 300 mg/kg IP 1 h alone, read-out: Plasma): 1500 ± 320 µM
concentration at 1 h ([1]; mouse, plasma, Studies 3B+3C combined, analyte Levetiracetam, 300 mg/kg IP + Compound A 4 mg/kg PO, read-out: Plasma): 1730 µM
concentration at 1 h ([1]; mouse, plasma, Study 3B, analyte Levetiracetam, 300 mg/kg IP + Compound A 4 mg/kg PO, read-out: Plasma): 1350 µM
concentration at 1 h ([1]; mouse, plasma, Study 3C, analyte Levetiracetam, 300 mg/kg IP + Compound A 4 mg/kg PO, read-out: Plasma): 2160 µM
SMILES: CC[C@@H](C(N)=O)N1CCCC1=O [Levetiracetam, reference compound]
average efficacy in previous experiments ([2]; Levetiracetam 300 mg/kg IP 1 h, 34 milliampere 6 Hz): 35%
Fraction Seizing ([2]; Studies 3B+3C combined): 14/16
Fraction Seizing ([2]; Study 3B): 8/8
Fraction Seizing ([2]; Study 3C): 6/8
animals protected from seizing ([2]; Study 3C, Levetiracetam 300 mg/kg IP alone): 2/8
ED50 (MES assay): > 500 mg/kg
fraction of mice without tonic seizures ([3]; Levetiracetam 120 mg/kg IP 2 h): 0/6
fraction of mice without tonic seizures ([3]; Levetiracetam 150 mg/kg IP 2 h): 2/8

SMILES: O=C1NC(=O)C(c2ccccc2)(c2ccccc2)N1 [Phenytoin, reference compound]
maximum % seizures of fitted curve, reflecting efficacy of Phenytoin alone ([3]; Phenytoin 2 mg/kg): 75%
fraction of animals without tonic seizures ([3]; Phenytoin 2 mg/kg IP 2 h alone): 6/24

SMILES: CCCC(CCC)C(=O)O [Valproic Acid, reference compound]
IC50 ([3]; Mus musculus, ip, read-out: IC50 for Valproic Acid (plasma level, inhibition of tonic seizures)): 1.44 mM
number of mice without tonic seizures/total ([3]; Vehicle PO + Valproic Acid 56 mg/kg IP 0.5 h): 1/7
number of mice without tonic seizures/total ([3]; Vehicle PO + Valproic Acid 100 mg/kg IP 0.5 h): 5/15
number of mice without tonic seizures/total ([3]; Vehicle+Valproic Acid at 56 mg/kg as printed, comparator of the 30 mg/kg combination): 0/8
decrease of IC50 for Valproic Acid ([3]; combined with 1 mg/kg Compound A vs alone): 2.37 fold
